Data taken from article PMC11091072, “Targeting bacterial nickel transport with aspergillomarasmine A suppresses virulence-associated Ni-dependent enzymes” (Nature Communications, 2024).
Several values for one entry are separate records, joined by “and”; a condition that tells them apart may be missing. Equal entries are not always repeated. Entries after “also recorded” stand apart in the source; their conditions may differ. Where two headings read alike, the source gives them in different places.

Tests used:
[1] = tested on: S. aureus urease activity (whole cell); format: cell-based, Staphylococcus aureus; conditions: artificial urine, 24 h; for Staphylococcus aureus urease-dependent pH change (pH): 37 °C; for effect on urease activity: S. aureus
K. pneumoniae biofilm = test: Polystyrene microtiter biofilm assay (crystal violet); format: cell-based, Klebsiella pneumoniae
Experimental: Biofilm assays to assess the effect of Zn-AMA were adapted from a previously described method. Overnight cultures of K. pneumoniae or S. aureus USA300 were diluted in sterile saline (NaCl, 0.9% w/v) to an OD600 of 0.1 and diluted 1/200 in either M9-Cas, or artificial urine. Two-fold dilutions of Zn-AMA were added to the cells in a 96-well round-bottom microtiter plate, and the cells were grown at 37 °C for 18 hours in a static incubator. […] The biofilms were washed three times with deionized water, air-dried, and stained with 0.1% crystal violet for 15 min. Excess crystal violet was removed, the plates were washed with deionized water three times, and they were air-dried for 1 hour. […] Experiments were performed in four replicates, and absorbance measurements were performed in a BioTek Synergy H1 plate reader.

S. aureus biofilm = test: as above; format: cell-based, Staphylococcus aureus USA300; conditions: artificial urine or M9
Experimental: Biofilm assays to assess the effect of Zn-AMA were adapted from a previously described method. Overnight cultures of K. pneumoniae or S. aureus USA300 were diluted in sterile saline (NaCl, 0.9% w/v) to an OD600 of 0.1 and diluted 1/200 in either M9-Cas, or artificial urine. Two-fold dilutions of Zn-AMA were added to the cells in a 96-well round-bottom microtiter plate, and the cells were grown at 37 °C for 18 hours in a static incubator. Following incubation, the microtiter plates were agitated on an orbital shaker (300 rpm, 2 min), the planktonic cells were transferred to a fresh plate, and their OD600 was quantified. The biofilms were washed three times with deionized water, air-dried, and stained with 0.1% crystal violet for 15 min. Excess crystal violet was removed, the plates were washed with deionized water three times, and they were air-dried for 1 hour. The crystal violet-stained biofilms were solubilized in 33% acetic acid (100 μL) for 5 min, and the absorbance (600 nm) was measured. Experiments were performed in four replicates, and absorbance measurements were performed in a BioTek Synergy H1 plate reader.

[2] = tested on: cellular Ni and Zn content of K. pneumoniae; test: Cellular metal analysis by ICP-MS (60Ni, 66Zn); format: cell-based, Klebsiella pneumoniae; conditions: for effect on intracellular Ni^2+ levels / effect on intracellular Zn^2+ levels: 200 μM, ICP-MS; for ICP-MS cellular Ni / ICP-MS cellular Zn: K. pneumoniae treated with 200 μM
Experimental: The cellular Zn^2+ and Ni^2+ content of K. pneumoniae was carried out according to the method described by Maunders et al.[66] with some modifications. An overnight culture of K. pneumoniae was diluted 1/200 in LB medium (5 mL) and was either untreated or treated with 0.2 mM AMA or Zn-AMA. The cells were grown for 16 h at 37 °C, harvested by centrifugation, and washed twice with PBS containing 5 mM EDTA and twice with ultra-pure water. The cell pellet was subsequently digested in 0.25 mL 65% HNO3 at 80 °C for 30 minutes in borosilicate glass tubes using a water bath. The samples were diluted to 2% HNO3 and filtered through a 0.45 μm syringe filter. ^60Ni and ^66Zn were quantified using a Thermo iCAP Q ICP-MS.

Hyd-3 = test: [NiFe] hydrogenase zymography; format: cell-based, Escherichia coli BW25113; conditions: 150 µM, E. coli, 100% H2
Experimental: As described for whole-cell hydrogenase assays, E. coli BW25113 cultures (2 mL) in eight-well cell culture plates were grown under anaerobic conditions. The cells were harvested by centrifugation, resuspended in PBS, and lysed by sonication. Cell debris was removed by centrifugation (21,000 × g, 5 min), and Triton X-100 was added to a final concentration of 1%.
[NiFe] hydrogenase zymograms were
performed using E. coli grown in LB-glucose supplemented with 0.5 µM NiCl2 for 24h at 37 °C under anaerobic conditions. The E. coli
Triton X-100 (5% v/v) solubilized membranes were
mg/mL benzyl viologen and 1 mg/mL tetrazolium chloride under 100% H2 gas.

[3] = tested on: K. pneumoniae urease activity (Ni2+ uptake); test: Competition of Zn-AMA with Ni-(L-His)2 (urease-dependent pH); format: cell-based, Klebsiella pneumoniae
NikA [4] = format: binding, Klebsiella pneumoniae; conditions: 100 μM
NikA [5] = target: T1, NikA (Klebsiella pneumoniae, UniProt A6TFA3); format: binding
T1 sequence (A6TFA3 entry or part of it): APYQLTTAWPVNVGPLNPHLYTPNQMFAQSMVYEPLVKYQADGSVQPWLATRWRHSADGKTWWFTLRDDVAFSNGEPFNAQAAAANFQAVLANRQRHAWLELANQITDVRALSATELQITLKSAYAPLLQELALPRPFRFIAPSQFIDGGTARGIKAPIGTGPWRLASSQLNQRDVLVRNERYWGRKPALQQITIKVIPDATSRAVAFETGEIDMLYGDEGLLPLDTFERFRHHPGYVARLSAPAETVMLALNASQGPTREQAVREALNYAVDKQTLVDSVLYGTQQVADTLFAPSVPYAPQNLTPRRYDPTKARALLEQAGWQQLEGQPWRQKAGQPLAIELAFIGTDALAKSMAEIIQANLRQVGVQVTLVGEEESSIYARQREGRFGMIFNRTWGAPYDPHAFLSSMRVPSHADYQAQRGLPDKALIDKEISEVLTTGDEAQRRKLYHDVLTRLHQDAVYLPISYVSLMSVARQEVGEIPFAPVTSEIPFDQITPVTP

K. pneumoniae ATCC 33495 = test: Galleria mellonella infection model; format: in vivo; conditions: for survival curve event per larva: K. pneumoniae + 7.5 μg/mL Zn-AMA, one cell per larva
Experimental: (§1) The cell suspensions were mixed at an equal volume of 300 μg/mL Zn-AMA before injection. The larvae were each injected with 10 μL ([…]) of bacterial suspension with and without Zn-AMA or PBS. Ten larvae were used per group, incubated at 30 °C, and monitored on a 24-hour cycle. Fresh G. mellonella larvae were obtained from The Dragon Lair (www.thedragonlair.ca).

S. aureus USA300 = test: Galleria mellonella infection model; format: in vivo; conditions: for survival curve event per larva: S. aureus + 7.5 μg/mL Zn-AMA, one cell per larva
Experimental: as §1

[6] = Competitive ITC of AMA, Zn2+ and Ni2+ (Ni2+ affinity of AMA); format: binding; conditions: competition ITC, 25 mM Tris-HCl, 150 mM NaCl, pH 7.5, 37 °C; estimated; read-out: KD for Ni^2+
NikA [7] = target: T1, NikA; format: cell-based; conditions: 250 μM

## N[C@@H](CN[C@@H](CN[C@@H](CC(=O)O)C(=O)O)C(=O)O)C(=O)O.[Zn+2] [Zn-AMA]
[1]; 0.19 μM
  Staphylococcus aureus urease-dependent pH change (pH): 7.24 and 7.25
[1]; 0.39 μM
  Staphylococcus aureus urease-dependent pH change (pH): 7.28 and 7.12
[1]; 0.78 μM
  Staphylococcus aureus urease-dependent pH change (pH): 6.95 and 7.00
[1]; 1.56 μM
  Staphylococcus aureus urease-dependent pH change (pH): 6.76 and 6.81
[1]; 3.12 μM
  Staphylococcus aureus urease-dependent pH change (pH): 6.56 and 6.59
[1]; 6.25 μM
  Staphylococcus aureus urease-dependent pH change (pH): 6.45 and 6.49
[1]; 12.5 μM
  Staphylococcus aureus urease-dependent pH change (pH): 6.41 and 6.45
[1]; 25 μM
  Staphylococcus aureus urease-dependent pH change (pH): 6.38 and 6.40
[1]; 50 μM
  Staphylococcus aureus urease-dependent pH change (pH): 6.39 and 6.40
[1]; 100 μM
  Staphylococcus aureus urease-dependent pH change (pH): 6.37 and 6.40
[1]; 200 μM
  Staphylococcus aureus urease-dependent pH change (pH): 6.41 and 6.39
[1]
  effect on urease activity: inhibited urease activity similarly
K. pneumoniae biofilm; 1.56 μM, artificial urine
  Biofilm (A595), crystal violet: 0.659 and 0.666 and 0.436 and 0.533
  Planktonic (A595): 0.141 and 0.142 and 0.148 and 0.16
K. pneumoniae biofilm; 3.12 μM, artificial urine
  Biofilm (A595), crystal violet: 0.633 and 0.585 and 0.45 and 0.471
  Planktonic (A595): 0.147 and 0.142 and 0.13 and 0.155
K. pneumoniae biofilm; 6.2 μM, artificial urine
  Planktonic (A595): 0.194 and 0.11 and 0.126 and 0.129
K. pneumoniae biofilm; 12.5 μM, artificial urine
  Planktonic (A595): 0.177 and 0.124 and 0.113 and 0.167
K. pneumoniae biofilm; 25 μM, artificial urine
  Planktonic (A595): 0.165 and 0.136 and 0.151 and 0.152
K. pneumoniae biofilm; 50 μM, artificial urine
  Planktonic (A595): 0.165 and 0.152 and 0.157 and 0.154
K. pneumoniae biofilm; 100 μM, artificial urine
  Planktonic (A595): 0.171 and 0.148 and 0.158 and 0.166
K. pneumoniae biofilm; 200 μM, artificial urine
  Planktonic (A595): 0.167 and 0.176 and 0.175 and 0.166
K. pneumoniae biofilm; M9 minimal medium
  effect on biofilm production: biofilms were unperturbed
K. pneumoniae biofilm; artificial urine
  effect on biofilm production: completely suppress biofilm production
S. aureus biofilm
  effect on biofilm production: anti-biofilm activity was not observed
[2]
  effect on intracellular Ni^2+ levels: reduced intracellular Ni^2+ levels
  effect on intracellular Zn^2+ levels: without affecting Zn^2+ levels
  ICP-MS cellular Ni: 2.15 µM and 2.37 µM
  ICP-MS cellular Zn: 0.81 µM and 0.97 µM
Hyd-3
  Hyd-3 activity by zymography: Suppression of Hyd-3 activity
[3]; Zn-AMA 6.25 μM + L-His 3.12 μM
  pH of culture (Zn-AMA v.s. L-His): 7.4 and 7.43
[3]; Zn-AMA 6.25 μM + L-His 6.25 μM
  pH of culture (Zn-AMA v.s. L-His): 7.74 and 7.71
[3]; Zn-AMA 6.25 μM + L-His 12.5 μM
  pH of culture (Zn-AMA v.s. L-His): 7.97 and 8.09
[3]; Zn-AMA 6.25 μM, L-His 0 μM
  pH of culture (Zn-AMA v.s. L-His): 6.53 and 6.52
[3]; Zn-AMA 25 μM + L-His 3.12 μM
  pH of culture (Zn-AMA v.s. L-His): 6.81 and 6.82
[3]; Zn-AMA 25 μM + L-His 6.25 μM
  pH of culture (Zn-AMA v.s. L-His): 7.1 and 7.22
[3]; Zn-AMA 25 μM + L-His 12.5 μM
  pH of culture (Zn-AMA v.s. L-His): 7.41 and 7.51
[3]; Zn-AMA 25 μM, L-His 0 μM
  pH of culture (Zn-AMA v.s. L-His): 6.38 and 6.37
NikA [4]
  effect on stability of recombinant NikA: increase NikA’s stability
NikA [5]
  fold greater KD (weaker affinity) relative to Ni-(L-His)2: 14 fold
NikA [5]; 37 °C, pH 7.5
  n (stoichiometry, ITC): 0.78
  ∆G: -7.3 kcal/mol
  ∆H: -11.6 kcal/mol
  −T∆S: 4.3 kcal/mol
NikA [5]; read-out: KD for NikA (ITC), 25 mM Tris-HCl, 150 mM NaCl, 0.1% Triton X-100, pH 7.5, 37 °C
  Kd: 6.8 ± 0.4 µM
K. pneumoniae ATCC 33495; day 1 post infection
  survival curve event per larva: 1
K. pneumoniae ATCC 33495; day 2 post infection
  survival curve event per larva: 1
K. pneumoniae ATCC 33495; day 3 post infection
  survival curve event per larva: 1
K. pneumoniae ATCC 33495; day 5 post infection
  survival curve event per larva: 1
K. pneumoniae ATCC 33495; K. pneumoniae infection, 7.5 mg/kg, seven days
  G. mellonella larvae survival: significantly enhance the survival; also recorded: effective monotherapy
S. aureus USA300; day 1 post infection
  survival curve event per larva: 1
S. aureus USA300; day 2 post infection
  survival curve event per larva: 1
S. aureus USA300; day 3 post infection
  survival curve event per larva: 1
S. aureus USA300; day 5 post infection
  survival curve event per larva: 1
S. aureus USA300; day 7 post infection
  survival curve event per larva: 0
S. aureus USA300; S. aureus USA300 infection, 7.5 mg/kg, seven days
  G. mellonella larvae survival: significantly enhance the survival; also recorded: effective monotherapy

## N[C@@H](CN[C@@H](CN[C@@H](CC(=O)O)C(=O)O)C(=O)O)C(=O)O [AMA, aspergillomarasmine A]
[6]
  Kd: ~0.08 nM and 0.08 nM
[1]; 0.19 μM
  Staphylococcus aureus urease-dependent pH change (pH): 6.95 and 7.25
[1]; 0.39 μM
  Staphylococcus aureus urease-dependent pH change (pH): 6.96 and 7.10
[1]; 0.78 μM
  Staphylococcus aureus urease-dependent pH change (pH): 6.77 and 6.94
[1]; 1.56 μM
  Staphylococcus aureus urease-dependent pH change (pH): 6.69 and 6.68
[1]; 3.12 μM
  Staphylococcus aureus urease-dependent pH change (pH): 6.42 and 6.51
[1]; 6.25 μM
  Staphylococcus aureus urease-dependent pH change (pH): 6.40 and 6.45
[1]; 12.5 μM
  Staphylococcus aureus urease-dependent pH change (pH): 6.33 and 6.40
[1]; 25 μM
  Staphylococcus aureus urease-dependent pH change (pH): 6.33 and 6.38
[1]; 50 μM
  Staphylococcus aureus urease-dependent pH change (pH): 6.38
[1]; 100 μM
  Staphylococcus aureus urease-dependent pH change (pH): 6.31 and 6.37
[1]; 200 μM
  Staphylococcus aureus urease-dependent pH change (pH): 6.35 and 6.38
[1]
  effect on urease activity: inhibited urease activity similarly
[2]
  effect on intracellular Ni^2+ levels: reduced intracellular Ni^2+ levels
  effect on intracellular Zn^2+ levels: without affecting Zn^2+ levels
  ICP-MS cellular Ni: 2.92 µM and 2.63 µM
  ICP-MS cellular Zn: 0.75 µM and 0.88 µM
NikA [7]
  NikA thermal stability in cells (CETSA): barely detectable at 60 °C
